{"source": "patent US20170315129A1", "about": "“CANCER CELL DETECTION METHOD USING LIVING BODY-DERIVED CELLS OF BIOLOGICAL ORIGIN” (Hirosaki University, priority 2014, published 2017)", "key": {"[1]": {"tested_on": "ascites cells obtained during an operation of a patient with endometrial cancer", "assay": "Live-cell fluorescence imaging of ascites cells, endometrial cancer patient, reactive mesothelial cells (Example 3)", "format": "cell-based, human", "details": "cell population in region of interest, apparent reactive mesothelial cells on Papanicolaou staining; 100 μM 2-NBDLG and 20 μM 2TRLG; FIG. 5A", "experimental": "Immediately after the start of laparotomy for endometrial cancer, the peritoneal cavity was washed with physiological saline in the same manner as in Example 1 to obtain a peritoneal washing, which was then added to a 50 mL centrifuge tube having 5 mL of the Hanks solution in advance. The resulting ascitic fluid suspension was centrifuged at 1500 G for 2 minutes at room temperature, and then the supernatant was removed with a dropper. Some of the resulting pellet was set aside for cytodiagnosis tests at the hospital's pathology department, and the rest was dispersed into 15 mL of a KRB solution in a 15 mL centrifuge tube, then again centrifuged at 1500 G for 2 minutes at room temperature, and the supernatant was removed with a dropper. The pellet primarily includes red blood cells, and a large amount of red blood cells may obscure the target cells, interfering with microscopy. […]\nAn ×2 fLG solution prepared as in Example 1 (2-1) in an amount of 1 mL was added and mixed, and the cells was exposed to fLG for 5 minutes in a 37° C. water bath. […] Bright field image: high sensitivity, transmitted illumination intensity 25, aperture stop 20%, exposure time 1/500 s • Green fluorescence image: high sensitivity, excitation light intensity 100%, exposure time 1/4 s • Red fluorescence image: high sensitivity, excitation light intensity 10%, exposure time 1/10 s • (Experiment Results)"}, "[2]": {"tested_on": "cells in peritoneal washing obtained during an operation of a patient with endometrial cancer (endometrial endometrioid adenocarcinoma)", "assay": "Live-cell fluorescence imaging by perfusion, cells in peritoneal washing, endometrial cancer patient (Example 5)", "format": "cell-based, human", "details": "cell clusters a and b (apparent mesothelial cells and apparent macrophage cells); perfusion 100 μM 2-NBDLG and 20 μM 2TRLG; FIG. 11A/11B, 12D", "experimental": "A peritoneal washing obtained immediately after the start of laparotomy for endometrial cancer (endometrial endometrioid adenocarcinoma) in the same manner as in Example 1 was added to a 50 mL centrifuge tube having 5 mL of the Hanks solution in advance. Fibrin, fat, and impurities were removed from the ascitic fluid suspension in the same manner as in Example 4. Subsequently, a half of it was dispensed into a 50 mL centrifuge tube, and centrifuged at 1500 G for 2 minutes at room temperature. The supernatant was processed in the same manner as in Example 4 to obtain 1 mL of an ascites-cell suspension. • (2) Adhesion of Ascites Cells on Glass Plate by Centrifugation, and Method of Maintaining Cell Viability\nThe ascites-cell suspension in an amount of 1 mL taken at (1) was transferred to a plastic chamber dedicateded for CF-12D as in Example 4. The ascites cells were allowed to attach on a glass plate by centrifugation at 1400 rpm for 1 minute at room temperature. The plate was then treated as in Example 4, and stored in a moisture chamber until being mounted on the perfusion stage. • (3) Attachment of Glass Plate on Perfusion Stage and Perfusion […]\nIt was performed as in Example 4. Only a green fluorescence image was taken before administration of the fluorescently labeled L-glucose derivative. […]"}, "[3]": {"tested_on": "pancreatic cancer cells", "details": "in vitro culture cells such as pancreatic cancer cells or cancer-bearing mice; cited from earlier work"}}, "note": "“Also recorded” adds a separate entry of the source."}
{"smiles": "O=C[C@@H](Nc1ccc([N+](=O)[O-])c2nonc12)[C@H](O)[C@@H](O)[C@@H](O)CO", "note": "[2-NBDLG, 2-[N-(7-nitrobenz-2-oxa-1,3-diazole-4-yl)amino]-2-deoxy-L-glucose]", "values": [{"measurement": "fluorescence from 2-NBDLG (green wavelength region)", "setting": "[1]", "result": "shows fluorescence"}, {"measurement": "fluorescence from 2-NBDLG (green wavelength region), after vs before application", "setting": "[2]", "result": "Neither the cell cluster a nor b shows fluorescence; also recorded: negative"}, {"measurement": "uptake into cancer cells", "setting": "[3]", "result": "specific uptake"}]}
